Values quoted from earlier work as cited in US5594100A, “Epitope for prevention of type I diabetes” (Regents of the University of Colorado, priority 1995, dated 1997).

Test system: islet-specific T cell lines and clones from islet-infiltrating lymphocytes
Conditions: panel of nominally islet-specific lines and clones from female NOD mice

porcine insulin: Porcine insulin (Sigma) used for testing specificity of insulin-specific T cell lines and clones
T cell lines and clones responding to porcine insulin: 22 of 40 | percent of T cell lines and clones responding to porcine insulin: 55%
